The results in this text go back to US20070128217A1 (priority 2003, published 2007).

The subject of test [1] is control sera (pooled serum of ten healthy LUMC hospital workers; commercial negative donor pooled serum from the Dutch bloodbank). Type of test: binding, human.
The test system of test [2] is rabbit serum obtained by immunizing a rabbit with the SARS-CoV strain Frankfurt 1. Type of test: binding. Set-up: Binding of a rabbit serum to linear peptides / Binding of a rabbit serum to looped peptides / Rabbit serum linear peptides / Rabbit serum looped peptides / Binding of a rabbit serum to linear peptides of protein N of SARS-CoV Urbani (Rabbit serum linear peptides) / Binding of a rabbit serum to looped/cyclic peptides of protein N of SARS-CoV Urbani (Rabbit serum looped peptides): unit not given here.

Test [3] concerns antibodies in sera from SARS patients (sera 1a, 1b, 2, 6, 37, 62, London, SARS-yellow, SARS-green). Type of test: binding, human.

VNSVLLFLAFVVFLL: in test [1], the “Binding of Control Serum Blood-Bank to Looped peptides” value was determined as 0.5, the “Binding of Control serum Blood-bank to linear peptides” value is reported as 0.5, the “Binding of Control serum LUMC to linear peptides” value is 0.4 and the “Binding of Control serum LUMC to looped peptides” value was 0.7. Further, in test [2], the “Binding of a rabbit serum to linear peptides” value amounted to 0.2 and the “Binding of a rabbit serum to looped peptides” value turned out to be 0.4. Further, in test [3], the “Binding of serum 1a to linear peptides of protein E of SARS-CoV Urbani” value was found to be 0.9, the “Binding of serum 1a to looped/cyclic peptides of protein E of SARS-CoV Urbani” value was 0.6, the “Binding of serum 1b to linear peptides of protein E of SARS-CoV Urbani” value was determined as 0.1 and the “Binding of serum 1b to looped/cyclic peptides of protein E of SARS-CoV Urbani” value came out at 0.4. Also, in test [3], the “Binding of serum 2 to linear peptides of protein E of SARS-CoV Urbani” value is 1.1, the “Binding of serum 2 to looped/cyclic peptides of protein E of SARS-CoV Urbani” value is 0.5, the “Binding of serum 6 to linear peptides of protein E of SARS-CoV Urbani” value is 0.6 and the “Binding of serum 6 to looped/cyclic peptides of protein E of SARS-CoV Urbani” value came out at 0.3. Besides, in test [3], the “Binding of serum 37 to linear peptides of protein E of SARS-CoV Urbani” value is on record as 0.5, the “Binding of serum 37 to looped/cyclic peptides of protein E of SARS-CoV Urbani” value is reported as 0.6, the “Binding of serum 62 to linear peptides of protein E of SARS-CoV Urbani” value turned out to be 0.2 and the “Binding of serum 62 to looped/cyclic peptides of protein E of SARS-CoV Urbani” value amounted to 0.7. In addition, in test [3], the “Binding of serum London to linear peptides of protein E of SARS-CoV Urbani” value worked out at 1.4, the “Binding of serum London to looped/cyclic peptides of protein E of SARS-CoV Urbani” value came out at 0.3, the “Binding of serum SARS-green to linear peptides of protein E of SARS-CoV Urbani” value was determined as 0.7 and the “Binding of serum SARS-green to looped/cyclic peptides of protein E of SARS-CoV Urbani” value worked out at 0.4. In test [3], the “Binding of serum SARS-yellow to linear peptides of protein E of SARS-CoV Urbani” value stood at 0.6 and the “Binding of serum SARS-yellow to looped/cyclic peptides of protein E of SARS-CoV Urbani” value came to 0.6.
For the sequence VTLAILTALRLCAYC, in test [1], the “Binding of Control Serum Blood-Bank to Looped peptides” value was 0.9, the “Binding of Control serum Blood-bank to linear peptides” value was 0.5, the “Binding of Control serum LUMC to linear peptides” value came to 0.6 and the “Binding of Control serum LUMC to looped peptides” value was found to be 0.8. In test [2], the “Binding of a rabbit serum to linear peptides” value amounted to 0.1 and the “Binding of a rabbit serum to looped peptides” value was found to be 0.4. Further, in test [3], the “Binding of serum 1a to linear peptides of protein E of SARS-CoV Urbani” value is reported as 0.6, the “Binding of serum 1a to looped/cyclic peptides of protein E of SARS-CoV Urbani” value was 0.7, the “Binding of serum 1b to linear peptides of protein E of SARS-CoV Urbani” value worked out at 0.5 and the “Binding of serum 1b to looped/cyclic peptides of protein E of SARS-CoV Urbani” value amounted to 0.5. In test [3], the “Binding of serum 2 to linear peptides of protein E of SARS-CoV Urbani” value turned out to be 0.6, the “Binding of serum 2 to looped/cyclic peptides of protein E of SARS-CoV Urbani” value came out at 0.9, the “Binding of serum 6 to linear peptides of protein E of SARS-CoV Urbani” value is given as 0.3 and the “Binding of serum 6 to looped/cyclic peptides of protein E of SARS-CoV Urbani” value stood at 0.6. Besides, in test [3], the “Binding of serum 37 to linear peptides of protein E of SARS-CoV Urbani” value stood at 0.4, the “Binding of serum 37 to looped/cyclic peptides of protein E of SARS-CoV Urbani” value is 0.6, the “Binding of serum 62 to linear peptides of protein E of SARS-CoV Urbani” value is recorded as 0.4 and the “Binding of serum 62 to looped/cyclic peptides of protein E of SARS-CoV Urbani” value is 0.8. In test [3], the “Binding of serum London to linear peptides of protein E of SARS-CoV Urbani” value stood at 0.5, the “Binding of serum London to looped/cyclic peptides of protein E of SARS-CoV Urbani” value is given as 0.5, the “Binding of serum SARS-green to linear peptides of protein E of SARS-CoV Urbani” value turned out to be 0.5 and the “Binding of serum SARS-green to looped/cyclic peptides of protein E of SARS-CoV Urbani” value is 0.5. Besides, in test [3], the “Binding of serum SARS-yellow to linear peptides of protein E of SARS-CoV Urbani” value was 0.2 and the “Binding of serum SARS-yellow to looped/cyclic peptides of protein E of SARS-CoV Urbani” value is listed as 0.7.
For the sequence VVFLLVTLAILTALR, in test [1], the “Binding of Control Serum Blood-Bank to Looped peptides” value worked out at 0.6, the “Binding of Control serum Blood-bank to linear peptides” value was determined as 0.6, the “Binding of Control serum LUMC to linear peptides” value is given as 0.4 and the “Binding of Control serum LUMC to looped peptides” value worked out at 0.6. In addition, in test [2], the “Binding of a rabbit serum to linear peptides” value is 0.5 and the “Binding of a rabbit serum to looped peptides” value was 0.2. Also, in test [3], the “Binding of serum 1a to linear peptides of protein E of SARS-CoV Urbani” value was determined as 0.7, the “Binding of serum 1a to looped/cyclic peptides of protein E of SARS-CoV Urbani” value came to 0.5, the “Binding of serum 1b to linear peptides of protein E of SARS-CoV Urbani” value was 0.4 and the “Binding of serum 1b to looped/cyclic peptides of protein E of SARS-CoV Urbani” value was determined as 0.3. Also, in test [3], the “Binding of serum 2 to linear peptides of protein E of SARS-CoV Urbani” value stood at 0.4, the “Binding of serum 2 to looped/cyclic peptides of protein E of SARS-CoV Urbani” value is 0.5, the “Binding of serum 6 to linear peptides of protein E of SARS-CoV Urbani” value was 0.6 and the “Binding of serum 6 to looped/cyclic peptides of protein E of SARS-CoV Urbani” value was 0.5. Further, in test [3], the “Binding of serum 37 to linear peptides of protein E of SARS-CoV Urbani” value was 0.6, the “Binding of serum 37 to looped/cyclic peptides of protein E of SARS-CoV Urbani” value worked out at 0.4, the “Binding of serum 62 to linear peptides of protein E of SARS-CoV Urbani” value was 0.6 and the “Binding of serum 62 to looped/cyclic peptides of protein E of SARS-CoV Urbani” value is 0.7. In addition, in test [3], the “Binding of serum London to linear peptides of protein E of SARS-CoV Urbani” value worked out at 0.5, the “Binding of serum London to looped/cyclic peptides of protein E of SARS-CoV Urbani” value was 0.5, the “Binding of serum SARS-green to linear peptides of protein E of SARS-CoV Urbani” value worked out at 0.5 and the “Binding of serum SARS-green to looped/cyclic peptides of protein E of SARS-CoV Urbani” value is on record as 0.2. In test [3], the “Binding of serum SARS-yellow to linear peptides of protein E of SARS-CoV Urbani” value amounted to 0.1 and the “Binding of serum SARS-yellow to looped/cyclic peptides of protein E of SARS-CoV Urbani” value is on record as 0.5.
